The source of these data is ChEMBL document CHEMBL3045824, “Unique neonicotinoid binding conformations conferring selective receptor interactions” (J Agric Food Chem, 2011).

The Ki is the equilibrium dissociation constant of an inhibitor or competing ligand from its target.

Test [1] has as its target Soluble acetylcholine receptor (Aplysia californica, UniProt Q8WSF8, Y55W). The test can be described thus: Binding affinity to salt water mollusc Aplysia californica AChBP Y55W mutant assessed as [3H]acetamiprid binding by radioligand binding assay.
Test [2] addresses Neuronal acetylcholine receptor subunit alpha-4 (Gallus gallus, UniProt P09482+P09484). The test can be described thus: Binding affinity to recombinant Gallus gallus (chicken) alpha4beta2 nicotinic acetylcholine receptor assessed as [3H]NIC binding by radioligand binding assay.
For test [3], the target named is T1, Acetylcholine receptor subunit beta-like 2 (Drosophila melanogaster, UniProt P25162).
T1 sequence (P25162 whole entry): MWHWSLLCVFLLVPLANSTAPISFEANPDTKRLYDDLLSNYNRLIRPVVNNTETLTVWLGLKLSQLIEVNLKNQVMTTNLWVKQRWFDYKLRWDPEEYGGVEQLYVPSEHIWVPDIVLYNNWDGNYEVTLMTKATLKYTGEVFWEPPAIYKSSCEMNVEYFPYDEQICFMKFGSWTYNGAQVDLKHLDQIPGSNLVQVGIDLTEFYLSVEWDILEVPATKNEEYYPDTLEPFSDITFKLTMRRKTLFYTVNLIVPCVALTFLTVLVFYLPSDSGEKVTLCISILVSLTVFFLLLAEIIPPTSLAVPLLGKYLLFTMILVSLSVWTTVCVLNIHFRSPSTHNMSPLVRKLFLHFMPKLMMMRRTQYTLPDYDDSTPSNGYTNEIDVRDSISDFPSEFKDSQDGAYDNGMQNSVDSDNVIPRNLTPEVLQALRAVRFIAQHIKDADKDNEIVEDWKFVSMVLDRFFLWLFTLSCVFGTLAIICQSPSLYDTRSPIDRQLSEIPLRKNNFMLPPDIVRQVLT
Briefly: Binding affinity to Drosophila brain nicotinic acetylcholine receptor assessed as [3H]IMI binding by radioligand binding assay.

The target of test [4] is Acetylcholine-binding protein (Lymnaea stagnalis, UniProt P58154). The test can be described thus: Binding affinity to freshwater snail Lymnaea stagnalis AChBP assessed as [3H]EPI binding by radioligand binding assay.
Acetylcholine-binding protein, sequence (P58154 whole entry): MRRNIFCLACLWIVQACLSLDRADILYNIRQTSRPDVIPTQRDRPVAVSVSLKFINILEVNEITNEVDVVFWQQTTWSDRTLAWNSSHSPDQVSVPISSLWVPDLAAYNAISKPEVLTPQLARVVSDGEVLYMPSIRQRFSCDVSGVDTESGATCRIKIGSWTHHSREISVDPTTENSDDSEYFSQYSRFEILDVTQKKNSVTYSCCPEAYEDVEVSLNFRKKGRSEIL

Neuronal acetylcholine receptor subunit alpha-4, sequence (P09482 whole entry, one chain of several): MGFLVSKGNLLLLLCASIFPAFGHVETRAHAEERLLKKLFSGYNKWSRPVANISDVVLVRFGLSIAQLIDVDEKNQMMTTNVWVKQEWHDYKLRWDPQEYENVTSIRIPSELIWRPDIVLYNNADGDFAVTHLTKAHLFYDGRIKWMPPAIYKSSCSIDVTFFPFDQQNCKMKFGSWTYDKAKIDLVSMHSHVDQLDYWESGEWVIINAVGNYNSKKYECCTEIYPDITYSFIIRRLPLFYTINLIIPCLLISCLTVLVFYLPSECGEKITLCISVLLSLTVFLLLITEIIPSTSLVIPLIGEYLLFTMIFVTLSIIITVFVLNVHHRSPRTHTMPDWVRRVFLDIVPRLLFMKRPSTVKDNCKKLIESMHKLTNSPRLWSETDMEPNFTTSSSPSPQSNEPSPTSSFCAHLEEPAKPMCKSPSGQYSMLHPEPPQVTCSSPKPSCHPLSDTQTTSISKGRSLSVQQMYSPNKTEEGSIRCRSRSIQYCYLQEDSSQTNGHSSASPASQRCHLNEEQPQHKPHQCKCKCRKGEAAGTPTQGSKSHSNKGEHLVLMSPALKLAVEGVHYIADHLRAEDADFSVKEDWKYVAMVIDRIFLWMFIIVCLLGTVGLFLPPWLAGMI

In the case of `O=[N+]([O-])/C=C1\NCCN1Cc1ccc(Cl)nc1`, the values for the inhibition constant (Ki) in test [1], in test [2] and in test [3] were 1.7 nM, 60 nM and 0.12 nM, respectively.
Take `C/C(=N\C#N)N(C)Cc1ccc(Cl)nc1`: the Ki came to 32 nM in test [1], 680 nM in test [2], 1200 nM in test [4] and 7.2 nM in test [3].
Turning to `Clc1ccc(C2CC3CCC2N3)cn1` (racemic) [EPIBATIDINE], the values for the Ki in test [1], in test [4] and in test [3] were 1 nM, 0.3 nM and 290 nM, respectively.
For the compound `N=C1SCCN1Cc1ccc(Cl)nc1` [DESCYANOTHIACLOPRID], the inhibition constant (Ki) in test [1] stood at 0.6 nM; in test [2], 1.2 nM; in test [4], 16 nM; in test [3] it was 130 nM.
For `N=C1NCCN1Cc1ccc(Cl)nc1` [DESNITROIMIDACLOPRID], in that order: 15 nM, 2.2 nM, 18 nM and 1000 nM.
Take `O=[N+]([O-])NC1=NCCN1Cc1ccc(Cl)nc1` [IMIDACLOPRID]: the Ki was 19 nM in test [1], 970 nM in test [2] and 3 nM in test [3].
In the same order, the values of `CN1CCC[C@H]1c1cccnc1` [NICOTINE] are 30 nM, 1.9 nM and 2700 nM.
As to `N#C/N=C1\SCCN1Cc1ccc(Cl)nc1` [THIACLOPRID], the results for the Ki in test [1], in test [2] and in test [3] were 3.9 nM, 240 nM and 1.2 nM, respectively.
